Where two headings read alike, the source gives them in different places.
Experiments:
[1] = biological target: MVD (δ): mouse vas deferens, δ-receptors; conditions: cited from earlier work; for Ke of CTAP against the peptide, MVD: antagonist CTAP (μ); for Ke of CTAP against the peptide, MVD / Ke of N,N(Me)2Dmt-Tic-OH against the peptide, MVD: MVD assay; for Ke of N,N(Me)2Dmt-Tic-OH against the peptide, MVD: antagonist N,N(Me)2Dmt-Tic-OH (δ); for GPI/MVD: ratio of IC50 values
δ-opioid receptor [2] = conditions: cited from earlier work; for Ki: versus [3H]DT, read-out: Receptor binding affinity, Ki ± S.E., δ; for μ/δ: ratio of Ki values
μ-opioid receptor [3] = conditions: cited from earlier work; for Ki: versus [3H]DAMGO, read-out: Receptor binding affinity, Ki ± S.E., μ
[4] = test system: GPI (μ): guinea pig ileum, predominantly μ-receptors; conditions: cited from earlier work; for MVD/GPI: ratio of IC50 values; for Ke of CTAP against the peptide, GPI: antagonist CTAP (μ), GPI assay
δ-opioid receptor [5] = test: δ-opioid receptor binding, brain homogenate, versus [3H]DT; design: species or system rat; conditions: ratio of Ki values
Method: The receptor-binding affinities of synthetic analogs were determined using rat brain, as previously reported [45].

μ-opioid receptor [6] = test: μ-opioid receptor binding, brain homogenate, versus [3H]DAMGO; design: species or system rat; conditions: ratio of Ki values
Method: (§1) The receptor-binding affinities of synthetic analogs were determined using rat brain, as previously reported. […] The GPI tissue contains predominantly μ-receptors, while MVD tissue contains δ-receptors. […] In contrast, 11 was devoid of activity in both assays, as expected from the binding data. […] This analog turned out to be a potent μ-antagonist and a weak δ-antagonist. […] The results of 13 are in line with observations that Dmt-D-Phe-NH2 and its C-terminally extended analog are μ-receptor antagonists.
Two methyl groups on Dmp^4 may interfere with the receptor interaction due to a reduction in conformational flexibility and/or enhanced lipophilicity. To further examine the usefulness of Dmp-containing DYN peptides as κ-opioid receptor ligands, the in vitro bioactivity of DYN peptides was determined using the GPI assay (Table 5).

[7] = test system: GPI (μ): guinea pig ileum, predominantly μ-receptors; test: isolated guinea pig ileum (GPI) assay; assay type: cell-based; conditions: ratio of IC50 values
Method: as §1

[8] = test system: MVD (δ): mouse vas deferens, δ-receptors; test: isolated mouse vas deferens (MVD) assay; assay type: cell-based; conditions: Table 1; ratio of IC50 values
Method: as §1

Row | Substance | IC50 ([1]; Table 1) [nM] | Ki (δ-opioid receptor [2]; Table 1, rat brain) [nM] | Ki (μ-opioid receptor [3]; Table 1, rat brain) [nM] | IC50 ([4]; Table 1) [nM] | IC50 ([1]; Table 6) [nM] | Ki (δ-opioid receptor [2]; Table 6) [nM] | Ki (μ-opioid receptor [3]; Table 6) [nM] | IC50 ([4]; Table 6) [nM] | other results
1 | [D-Dmp^4]ENK [compound 11] | > 10000 | 8920 ± 4100 | 2500 ± 169 | > 10000 |  |  |  |  | μ/δ (δ-opioid receptor [5]; Table 1): 0.28
2 | [Phe^1]ENK [compound 33] |  |  |  |  | > 10000 | 73.7 ± 19.5 | 169 ± 12 | > 10000 | μ/δ (δ-opioid receptor [5]; Table 6): 2.29
3 | [Dmp^3]DM [compound 18] | 4.62 ± 0.82 | 45.7 ± 11.8 |  | 1.21 ± 0.23 |  |  |  |  | δ/μ (μ-opioid receptor [6]; Table 1): 84630; MVD/GPI ([7]; Table 1): 3.8
4 | [D-Dmp^3]EM2 [compound 15] | 187 ± 30 | 4170 ± 954 | 2.4 ± 0.56 | 30.4 ± 2.8 |  |  |  |  | δ/μ (μ-opioid receptor [6]; Table 1): 1737; MVD/GPI ([7]; Table 1): 6.15
5 | [Dmp^3]EM2 [compound 14] |  | 1060 ± 336 | 0.0304 ± 0.0208 | 0.378 ± 0.104 |  |  |  |  | δ/μ (μ-opioid receptor [6]; Table 1): 34967; MVD/GPI ([7]; Table 1): 3.68
6 | [Dmp^1]EM2 [compound 38] |  |  |  |  | 661 ± 316 | 6760 ± 590 | 2.48 ± 1.46 | 76.9 ± 20.7 | δ/μ (μ-opioid receptor [6]; Table 6): 2727; MVD/GPI ([7]; Table 6): 8.61
7 | Tyr-Gly-Gly-Phe-Leu [ENK, reference compound] | 22.2 ± 4.3 |  |  | 103 ± 30 | 22.2 ± 4.3 |  |  | 103 ± 30 | 
8 | [Phe^1]YRFB [compound 42] |  |  |  |  | 7140 ± 950 | > 2820 | 7.17 ± 1.03 | 633 ± 89 | δ/μ (μ-opioid receptor [6]; Table 6): >393; MVD/GPI ([7]; Table 6): 11.2
9 | [Dmt^1, D-Dmp^4]ENK [compound 13] | > 10000 | 40.9 ± 11.5 | 5.61 ± 0.59 | > 10000 |  |  |  |  | pA2 (δ antagonism) ([1]; against DT as a δ agonist in the MVD assay): 5.57; pA2 (μ antagonism) ([4]; against EM2 as a μ agonist in the GPI assay): 6.90; μ/δ (δ-opioid receptor [5]; Table 1): 0.14
10 | Tyr-D-Ala-Phe-Gly-Tyr-Pro-Ser-NH2 [DM, reference compound] | 34.4 ± 4.8 | 192 ± 51 | 0.092 ± 0.024 | 3.74 ± 0.57 |  |  |  |  | δ/μ (μ-opioid receptor [6]; Table 1): 2087; MVD/GPI ([7]; Table 1): 9.2
11 | [Dmt^1, Dmp^4]ENK [compound 12] | 1.45 ± 0.26 |  | 0.03 ± 0.011 | 2 ± 0.51 |  |  |  |  | GPI/MVD [8]: 1.38; μ/δ (δ-opioid receptor [5]; Table 1): 0.19
12 | [Dmt^1]YRFB [reference compound] |  |  |  |  |  |  |  |  | IC50 ([1]; Table 6, footnote c): 0.398 ± 0.085 nM; Ke of CTAP against the peptide, MVD [1]: 7.89 nM; Ke of N,N(Me)2Dmt-Tic-OH against the peptide, MVD [1]: 192 nM; Ki (δ-opioid receptor [2]; Table 6, footnote c): 1.13 ± 0.13 nM; δ/μ (μ-opioid receptor [3]; Table 6, footnote c, ratio of Ki values): 551; Ki (μ-opioid receptor [3]; Table 6, footnote c): 0.00205 ± 0.00069 nM; IC50 ([4]; Table 6, footnote c): 0.034 ± 0.065 nM; MVD/GPI ([4]; Table 6, footnote c): 11.7; Ke of CTAP against the peptide, GPI [4]: 85.5 nM
13 | [Dmp^3]DT [compound 20] | 0.022 ± 0.003 | 0.00105 ± 0.00043 | 1100 ± 111 | 6700 ± 992 |  |  |  |  | 
14 | [Dmp^4]ENK [compound 10] | 624 ± 103 | 17.7 ± 4.2 | 1.25 ± 0.29 | 808 ± 101 |  |  |  |  | GPI/MVD [8]: 1.29; μ/δ (δ-opioid receptor [5]; Table 1): 0.07
15 | [D-Dmp^3]DM [compound 19] | 358 ± 45 | 3300 ± 702 | 4.43 ± 1.85 | 44.4 ± 6.1 |  |  |  |  | δ/μ (μ-opioid receptor [6]; Table 1): 745; MVD/GPI ([7]; Table 1): 8.1
16 | [D-Dmp^3]YRFB [compound 23] | 305 ± 53 | > 2820 | 0.0618 ± 0.0109 | 19.8 ± 1.9 |  |  |  |  | δ/μ (μ-opioid receptor [6]; Table 1): >45679; MVD/GPI ([7]; Table 1): 15.4
17 | [D-Dmp^4]EM2 [compound 17] | 2270 ± 603 | 1760 ± 834 | 106 ± 20 | 587 ± 119 |  |  |  |  | δ/μ (μ-opioid receptor [6]; Table 1): 17; MVD/GPI ([7]; Table 1): 3.86
18 | [Dmt^1]ENK [reference compound] |  |  |  |  |  |  |  |  | IC50 ([1]; Table 1, footnote c): 0.17 ± 0.02 nM; GPI/MVD ([1]; Table 1, footnote c): 3.24; IC50 ([1]; Table 6, footnote c): 0.17 ± 0.02 nM; GPI/MVD ([1]; Table 6, footnote c): 3.24; μ/δ (δ-opioid receptor [2]; Table 1, footnote c): 0.22; Ki (δ-opioid receptor [2]; Table 1, footnote c): 0.031 ± 0.011 nM; μ/δ (δ-opioid receptor [2]; Table 6, footnote c): 0.22; Ki (δ-opioid receptor [2]; Table 6, footnote c): 0.031 ± 0.011 nM; Ki (μ-opioid receptor [3]; Table 1, footnote c): 0.0068 ± 0.003 nM; Ki (μ-opioid receptor [3]; Table 6, footnote c): 0.0068 ± 0.003 nM; IC50 ([4]; Table 1, footnote c): 0.55 ± 0.17 nM; IC50 ([4]; Table 6, footnote c): 0.55 ± 0.17 nM
19 | Tyr-D-Ala-Phe-Glu-Val-Val-Gly-NH2 [DT, reference compound] | 0.582 ± 0.029 | 0.0226 ± 0.0077 | 314 ± 53 | 5440 ± 812 | 0.582 ± 0.029 | 0.0226 ± 0.0077 | 314 ± 53 | 5440 ± 812 | Ke of CTAP against the peptide, MVD [1]: >1000 nM; Ke of N,N(Me)2Dmt-Tic-OH against the peptide, MVD [1]: 0.64 nM; GPI/MVD [8]: 9342; μ/δ (δ-opioid receptor [5]; Table 1): 13894
20 | [Dmp^4]EM2 [compound 16] | 320 ± 55 | 7620 ± 2570 | 13.2 ± 1.9 | 196 ± 40 |  |  |  |  | δ/μ (μ-opioid receptor [6]; Table 1): 578; MVD/GPI ([7]; Table 1): 1.63
21 | [Phe^1]DT [compound 37] |  |  |  |  | 10.4 ± 1.5 | 2.68 ± 1.22 | > 2180 | > 10000 | 
22 | [D-Dmp^l]DT [compound 35] |  |  |  |  | 662 ± 147 | 1390 ± 495 | > 2180 | > 10000 | 
23 | [Dmp^1]DT [compound 34] |  |  |  |  | 0.272 ± 0.054 | 0.329 ± 0.077 | 156 ± 33 | 4040 ± 1120 | μ/δ (δ-opioid receptor [5]; Table 6): 475
24 | [Dmt^1]EM2 [reference compound] |  |  |  |  |  |  |  |  | IC50 ([1]; Table 6, footnote d): 1.87 ± 0.61 nM; Ki (μ-opioid receptor [3]; Table 6, footnote d): 0.15 ± 0.04 nM; IC50 ([4]; Table 6, footnote d): 0.07 ± 0.02 nM; MVD/GPI ([4]; Table 6, footnote d): 26.7
25 | [D-Dmp^1]EM2 [compound 39] |  |  |  |  | 2330 ± 943 | 9710 ± 3820 | 40.4 ± 2.6 | 1390 ± 221 | δ/μ (μ-opioid receptor [6]; Table 6): 241
26 | [Phe^1]EM2 [compound 40] |  |  |  |  | 5200 | 18900 | 54.1 ± 23.4 | 1070 ± 309 | δ/μ (μ-opioid receptor [6]; Table 6): 348; MVD/GPI ([7]; Table 6): 4.85
27 | [D-Dmp^1]YRFB [compound 41] |  |  |  |  | 1470 ± 283 | > 2820 | 7.62 ± 1.75 | 320 ± 30 | δ/μ (μ-opioid receptor [6]; Table 6): >370; MVD/GPI ([7]; Table 6): 4.6
28 | [Dmp^1,3]YRFB [compound 25] |  |  |  |  |  | 1690 ± 458 | 0.0216 ± 0.0062 | 2.76 ± 0.56 | δ/μ (μ-opioid receptor [6]; Table 6): 78148; Ke of CTAP against the peptide, MVD [1]: 10.2 nM; Ke of N,N(Me)2Dmt-Tic-OH against the peptide, MVD [1]: >1000 nM; MVD/GPI ([7]; Table 6): 18.2; Ke of CTAP against the peptide, GPI [4]: 21.3 nM

From paper PMC4412257, “2′,6′-Dimethylphenylalanine: A Useful Aromatic Amino Acid Surrogate for Tyr or Phe Residue in Opioid Peptides” (International Journal of Medicinal Chemistry, 2012)
